Measurements taken from patent US20260240844A1, “INHIBITORS OF CHD1L AND USES THEREOF” (The Regents of the University of Colorado, a body corporate, priority 2023, published 2026).
Entries after “also recorded” stand apart in the source; their conditions may differ.

How the values were obtained:
cat-CHD1L = biological target: T1, cat-CHD1L (Homo sapiens, UniProt Q86WJ1); test: CHD1L ATPase assay measured by ADP-Glo; format: biochemical
T1 construct: made in house; host or cells: Rosetta 2 (DE3) pLysS cells (E. coli)
T1 sequence (Q86WJ1 16-619): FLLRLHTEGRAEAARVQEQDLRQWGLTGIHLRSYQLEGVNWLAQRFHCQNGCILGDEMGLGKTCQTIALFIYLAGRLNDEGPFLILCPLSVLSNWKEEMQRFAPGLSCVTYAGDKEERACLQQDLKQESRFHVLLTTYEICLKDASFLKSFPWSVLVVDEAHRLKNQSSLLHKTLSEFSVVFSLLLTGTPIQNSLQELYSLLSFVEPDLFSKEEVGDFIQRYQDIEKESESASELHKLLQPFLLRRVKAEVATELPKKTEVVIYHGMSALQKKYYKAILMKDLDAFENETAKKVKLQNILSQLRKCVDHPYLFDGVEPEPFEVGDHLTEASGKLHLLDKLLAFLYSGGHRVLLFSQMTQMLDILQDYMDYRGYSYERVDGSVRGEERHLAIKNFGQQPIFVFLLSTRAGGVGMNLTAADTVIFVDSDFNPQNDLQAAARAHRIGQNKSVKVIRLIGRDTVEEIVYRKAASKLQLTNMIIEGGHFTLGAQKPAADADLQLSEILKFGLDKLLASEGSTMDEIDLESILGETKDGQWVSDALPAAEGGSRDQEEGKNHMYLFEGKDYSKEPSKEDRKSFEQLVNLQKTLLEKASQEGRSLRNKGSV
Experimental: No enzyme control was used to measure the background. […] The reaction was incubated at 37° C. for 1 h. The assay plate was brought to RT before 5 μL of ADP-glo™ Reagent (Promega, Cat. No. V9102) was added to remove unreacted ATP. The ATP depletion step was carried out at RT for 40 min before 10 μL of Kinase Detection Reagent was added and incubated for 30-60 min to convert the ADP produced from the enzyme assay back to ATP for luciferase rection to convert to light for detection. An EnVision plate reader (PerkinElmer) was used to detect luminescence from the ADP-glo assay and the enzyme activity was determined after background subtraction and normalization to enzyme only control.

CHD1L = biological target: T2, CHD1L (Homo sapiens, UniProt Q86WJ1); test: CHD1L trapping (in situ subcellular fractionation, immunofluorescence); format: cell-based; conditions: for CHD1L trapping onto chromatin/nucleosomes: single agent, SUM149PT + 0.01% MMS 4 h, BC and CRC cells
T2 sequence (Q86WJ1 1-897): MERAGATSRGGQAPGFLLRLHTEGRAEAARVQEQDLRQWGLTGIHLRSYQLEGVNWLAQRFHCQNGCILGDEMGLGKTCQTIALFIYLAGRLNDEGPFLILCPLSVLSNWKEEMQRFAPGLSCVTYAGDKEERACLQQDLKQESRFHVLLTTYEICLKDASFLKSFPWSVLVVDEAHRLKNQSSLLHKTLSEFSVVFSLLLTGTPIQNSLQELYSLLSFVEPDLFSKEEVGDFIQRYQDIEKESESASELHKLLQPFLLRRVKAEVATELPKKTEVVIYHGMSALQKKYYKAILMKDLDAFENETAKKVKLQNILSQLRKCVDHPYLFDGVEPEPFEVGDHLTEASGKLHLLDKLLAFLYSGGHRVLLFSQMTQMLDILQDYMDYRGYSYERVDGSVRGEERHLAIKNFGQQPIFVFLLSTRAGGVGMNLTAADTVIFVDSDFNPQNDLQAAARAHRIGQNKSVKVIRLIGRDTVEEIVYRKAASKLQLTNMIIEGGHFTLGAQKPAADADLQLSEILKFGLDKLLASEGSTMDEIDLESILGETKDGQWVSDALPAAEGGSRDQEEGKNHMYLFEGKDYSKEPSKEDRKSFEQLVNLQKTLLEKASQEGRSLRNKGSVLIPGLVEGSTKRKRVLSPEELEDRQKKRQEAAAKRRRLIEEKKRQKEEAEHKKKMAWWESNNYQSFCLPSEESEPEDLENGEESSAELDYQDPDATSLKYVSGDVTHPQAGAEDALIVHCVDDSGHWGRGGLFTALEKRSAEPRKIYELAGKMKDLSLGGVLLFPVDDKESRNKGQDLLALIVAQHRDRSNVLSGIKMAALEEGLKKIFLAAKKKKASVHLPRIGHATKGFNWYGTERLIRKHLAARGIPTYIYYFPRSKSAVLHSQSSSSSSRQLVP
Source text: Other studies on the role of CHD1L used cell lines with knockdown or knockouts of the gene encoding for CHD1L and have never been able to study the result of its enzymatic inhibition.

AIF in SUM149PT cells = test: AIF immunofluorescence in SUM149PT (SUM149) cells; format: cell-based; conditions: for cytoplasmic AIF / nuclear AIF: SUM149PT cells, single agent, 18 h
Source text: CHD1Li-mediated PAR translocation to the cytoplasm activates PARthanatos as a cell death mechanism. Parthanatos is a form a programmed cell death different from apoptosis and known to be mediated by PARP1 overactivation. The unique events occurring during parthanatos are: PARP1 rapid activation, accumulation of PAR and nuclear translocation of apoptosis inducing factor (AIF). Without being bound by any particular theory, accumulation of PAR in the cytoplasm caused by CHD1Li can also mediate parthanatos. To better understand the link between PAR translocation to the cytoplasm and cell death, immunofluorescence to measure the activation of caspase-3 and the subcellular localization of AIF after treatment with SOC drugs and Compound 6 in SUM49PT cells was used. […] Without being bound by any particular theory, this might be caused by the mitochondrial outer membrane permeabilization, which triggers release of mitochondrial proteins like AIF or cytochrome c, activating caspase-3 by its cleavage and leading to apoptosis. […] Moreover, when combining CHD1L inhibition with SOC drugs, the cell death mechanism shifts from apoptosis to parthanatos, evidenced by a significant increase in AIF nuclear translocation and decrease in activation of caspase-3 (FIG. 25D-E).
The ability of Compounds 12, 15 and 16 to localize AIF was tested in SUM149 (breast cancer) and MDA-MB-231 (TNBC) cell lines. A comparison of the relative distribution of AIF in nuclei (a) versus cytoplasm (b) in SUM149 cells and nuclei (c) versus cytoplasm (d) in MDA-MB-231 cells in the presence of 4 μM Compounds 12, 15 and 16 are shown in FIG. 28. […] Similarly, AIF concentration in the cytoplasm of MDA-MB-231 cells decreased by about 0.5 after administration with Compound 15. After treatment with Compound 16, the relative concentration of AIF in the nuclei of SUM149 cells increased by about 0.5-fold, and the concentration of AIF in the cytoplasm decreased by about 0.4-fold. In MDA-MB-231 cells, the relative concentration of AIF in the cytoplasm decreased by about 0.5-fold, while the concentration of AIF increased in the nuclei by about 0.1-fold.

SUM149PT cells = test: Cell cycle analysis by flow cytometry; format: cell-based
Experimental: Cells were then harvested by trypsinization, washed with PBS and fixed with 70% ice-cold ethanol for at least 2 h. The fixed cells were centrifuged at 300 g for 10 min, resuspended in PBS, centrifuged again, and stained in a 0.5 μg/mL DAPI solution in 0.1% Triton X-100-PBS for 30 min at RT. Samples were measured on a NovoCyte Penteon Cytometer (Agilent) and cell cycle distribution of single cells was analyzed using the automatic settings of FlowJo V10 (BD Biosciences).
Upon generation of DNA lesions, DNA damage checkpoints are also activated, which can lead to an arrest of the cell cycle, restraining chromosome segregation until the damaged DNA has been repaired. To study the effect of TNBC therapies and inhibition of CHD1L on the cell cycle, cells were stained with DAPI, and the cell subpopulations in G1, S and G2/M phases were analyzed by flow cytometry. […] Remarkably, the combination of these drugs with CHD1Li enhanced their effects, potentiating G2/M arrest caused by olaparib and G1 arrest caused by 5-FU (FIG. 23).

SMILES | inhibition of CHD1L ATPase activity (cat-CHD1L) | CHD1L trapping in combination (CHD1L; Compound 6 combined with olaparib) | CHD1L trapping onto chromatin/nucleosomes (CHD1L) | cytoplasmic AIF (AIF in SUM149PT cells) | nuclear AIF (AIF in SUM149PT cells) | cell cycle effect (SUM149PT cells; 24 hours, 0.2 μM) | CHD1L trapping onto chromatin/nucleosomes (CHD1L; listed as Doxorubicin) | increase in the percentage of cells in the G2/M phase (SUM149PT cells; 24 h) [fold] | AIF nuclear translocation in combination (AIF in SUM149PT cells; Compound 6.11 combined with doxorubicin or irinotecan/SN-38) | increase in number of cells in G1 phase compared to untreated cells (SUM149PT cells; 24 h) [%]
Cc1cc(Nc2ccc(NC(=O)Cc3cccs3)cc2)nc(N2CCCC2)n1 [Compound 6, N-(4-((6-methyl-2-(pyrrolidin-1-yl)pyrimidin-4-yl)amino)phenyl)-2-(thiophen-2-yl)acetamide] | potently inhibited | complete decrease in the CHD1L trapping | dose-dependent increase in CHD1L trapping | decrease in cytoplasmic AIF | significantly increasing AIF in the nucleus | arrest in S and G2/M phases | – | – | – | –
COc1cccc2c1C(=O)c1c(O)c3c(c(O)c1C2=O)C[C@@](O)(C(=O)CO)C[C@@H]3O[C@H]1C[C@H](N)[C@H](O)[C@H](C)O1 [doxorubicin] | do not trap CHD1L or inhibit CHD1L ATPase activity | – | do not trap CHD1L | – | some increase of AIF in the nucleus | – | does not cause a stable interaction of CHD1L and chromatin | – | – | –
O=C(c1cc(Cc2n[nH]c(=O)c3ccccc23)ccc1F)N1CCN(C(=O)C2CC2)CC1 [olaparib] | do not trap CHD1L or inhibit CHD1L ATPase activity | – | do not trap CHD1L; also recorded: did not show CHD1L trapping | increased cytoplasmic AIF; also recorded: increase in the AIF intensity in the cytoplasm | did not enhance nuclear AIF; also recorded: no translocation of this protein to the nucleus | – | – | 2 | – | –
Cc1cc(Nc2ccc(NC(=O)Cc3cc(Br)cs3)cc2)nc(N2CCCC2)n1 [Compound 6.11, 2-(4-bromothiophen-2-yl)-N-(4-((6-methyl-2-(pyrrolidin-1-yl)pyrimidin-4-yl)amino)phenyl)acetamide] | – | – | – | did not affect cytoplasmic AIF | increased nuclear AIF | – | – | – | resulted in AIF nuclear translocation | –
O=c1[nH]cc(F)c(=O)[nH]1 [Compound 5-FU, 5-fluorouracil] | – | – | – | – | – | – | – | – | – | 16
